{"source": "patent US11286268B1", "about": "“EIF4E-inhibiting compounds and methods” (EFFECTOR THERAPEUTICS, INC., priority 2019, dated 2022)", "data": [{"molecular_target": "recombinant eIF4E (Homo sapiens (Human), UniProt P06730)", "sequence (P06730 whole entry)": "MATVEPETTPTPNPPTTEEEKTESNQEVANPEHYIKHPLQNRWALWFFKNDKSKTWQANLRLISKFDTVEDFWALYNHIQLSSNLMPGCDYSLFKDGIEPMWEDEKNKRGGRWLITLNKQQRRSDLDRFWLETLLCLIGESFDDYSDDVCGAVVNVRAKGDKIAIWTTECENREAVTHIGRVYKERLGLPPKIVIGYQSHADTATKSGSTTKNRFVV", "experiment": "Fluorescence polarization competition assay for eIF4E binding potency", "settings": "inhibition of eIF4E/EDA-m7GDP-ATTO-550 binding; calculated IC50 values, Table 4B; read-out: IC50", "outline": "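IC50 derived from fluorescence polarization over an 8-point, 3-fold compound series after 30 min room-temperature equilibration in the dark. Mix: eIF4E 75 nM pre-bound 5 min to 20 nM EDA-m^7GDP-ATTO-550; buffer 20 mM Tris pH 7.5, 100 mM NaCl, 1 mM DTT, 0.02% Tween-20; DMSO 1%.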", "units": {"IC50": "nM"}, "values": [{"smiles": "Cc1nc2cncc(SCCN(C)C)c2c(=O)n1CCOc1ccc(Cl)cc1-c1ccnc2c(C(=O)O)csc12", "note": "[compound 1331]", "IC50": 91.8}, {"smiles": "Cc1nc2cnc(C3=C(C(C)(C)C)CN(C)C3)c(C#N)c2c(=O)n1CCOc1ccc(Cl)cc1-c1ccnc2c(C(=O)O)csc12", "note": "[compound 1332]", "IC50": 34.5}, {"smiles": "Cc1nc2cnc(N3CCN(CCF)C(C)(C)C3)c(C#N)c2c(=O)n1CCOc1ccc(Cl)cc1-c1ccnc2c(C(=O)O)csc12", "note": "[compound 1333]", "IC50": 26.2}, {"smiles": "Cc1nc2cnc(N3CCN(C)C(C(F)(F)F)C3)c(C#N)c2c(=O)n1CCOc1ccc(Cl)cc1-c1ccnc2c(C(=O)O)csc12", "note": "(stereo not drawn) [compound 1334]", "IC50": 51.3}, {"smiles": "Cc1nc2cnc(N3CCN(C)CC3C)c(C#N)c2c(=O)n1CCOc1ccc(Cl)cc1-c1ccnc2c(C(=O)O)csc12", "note": "(stereo not drawn) [compound 1335]", "IC50": 12.8}, {"smiles": "Cc1nc2cnc(N3CCN(C4(CF)CC4)CC3)c(C#N)c2c(=O)n1CCOc1ccc(Cl)cc1-c1ccnc2c(C(=O)O)csc12", "note": "[compound 1336]", "IC50": 13}, {"smiles": "Cc1nc2cnc(N3CCN(C)C4(CC4)C3)c(C#N)c2c(=O)n1CCOc1ccc(Cl)cc1-c1ccnc2c(C(=O)O)csc12", "note": "[compound 1337]", "IC50": 51.9}, {"smiles": "Cc1nc2cnc(N3CCN(CCF)C4(CC4)C3)c(C#N)c2c(=O)n1CCOc1ccc(Cl)cc1-c1ccnc2c(C(=O)O)csc12", "note": "[compound 1338]", "IC50": 9.5}, {"smiles": "Cc1nc2cnc(N3CCN(CCS(C)(=O)=O)CC3)c(C#N)c2c(=O)n1CCOc1ccc(Cl)cc1-c1ccnc2c(C(=O)O)csc12", "note": "[compound 1339]", "IC50": 36.4}, {"smiles": "Cc1nc2cnc(N3CC(N4CCC(F)(F)CC4)C3)c(C#N)c2c(=O)n1CCOc1ccc(Cl)cc1-c1ccnc2c(C(=O)O)csc12", "note": "[compound 1340]", "IC50": 44.2}, {"smiles": "Cc1nc2cnc(N3CC(N4CC(F)(F)C4)C3)c(C#N)c2c(=O)n1CCOc1ccc(Cl)cc1-c1ccnc2c(C(=O)O)csc12", "note": "[compound 1341]", "IC50": 21.5}, {"smiles": "Cc1nc2cnc(N3CCN(C)C(CC#N)C3)c(C#N)c2c(=O)n1CCOc1ccc(Cl)cc1-c1ccnc2c(C(=O)O)csc12", "note": "(stereo not drawn) [compound 1342]", "IC50": 30.4}, {"smiles": "Cc1nc2cnc(N3CCN(C(C)(C)CC#N)CC3)c(C#N)c2c(=O)n1CCOc1ccc(Cl)cc1-c1ccnc2c(C(=O)O)csc12", "note": "[compound 1343]", "IC50": 40.6}, {"smiles": "Cc1nc2cnc(C#CC3CCCN3C3CC3)c(C#N)c2c(=O)n1CCOc1ccc(Cl)cc1-c1ccnc2c(C(=O)O)csc12", "note": "(stereo not drawn) [compound 1344]", "IC50": 18.3}, {"smiles": "Cc1nc2cnc(CCCN(C)CCF)c(C#N)c2c(=O)n1CCOc1ccc(Cl)cc1-c1ccnc2c(C(=O)O)csc12", "note": "[compound 1345]", "IC50": 34.5}, {"smiles": "Cc1nc2cnc(C#CCN(C)C3(C)CC3)c(C#N)c2c(=O)n1CCOc1ccc(Cl)cc1-c1ccnc2c(C(=O)O)csc12", "note": "[compound 1346]", "IC50": 19.7}, {"smiles": "Cc1nc2cnc(N3CCN(C)C4CC43)c(C#N)c2c(=O)n1C/C=C/c1ccc(Cl)cc1-c1ccnc2c(C(=O)O)csc12", "note": "(stereo not drawn) [compound 1347]", "IC50": 41.4}, {"smiles": "Cc1nc2cnc(N3CCN4CCC3C4)c(C#N)c2c(=O)n1CCOc1ccc(Cl)cc1-c1ccnc2c(C(=O)O)csc12", "note": "(stereo not drawn) [compound 1348]", "IC50": 12.2}, {"smiles": "Cc1nc2cnc(SC3CCN(CC(F)(F)F)CC3)c(C#N)c2c(=O)n1CCOc1ccc(Cl)cc1-c1ccnc2c(C(=O)O)csc12", "note": "[compound 1349]", "IC50": 36.5}, {"smiles": "Cc1nc2cnc(N3C[C@@H](C)N(CC(F)F)[C@@H](C)C3)c(C#N)c2c(=O)n1CCOc1ccc(Cl)cc1-c1ccnc2c(C(=O)O)csc12", "note": "[compound 1350]", "IC50": 35.1}, {"smiles": "Cc1nc2cnc(N3CCN(C)C4(COC4)C3)c(C#N)c2c(=O)n1CCOc1ccc(Cl)cc1-c1ccnc2c(C(=O)O)csc12", "note": "[compound 1351]", "IC50": 16}, {"smiles": "Cc1nc2cnc(N3CCN(CCC(F)(F)F)CC3)c(C#N)c2c(=O)n1CC#Cc1ccc(Cl)cc1-c1ccnc2c(C(=O)O)csc12", "note": "[compound 1353]", "IC50": 17.2}, {"smiles": "Cc1nc2cnc(N3CCN(C4CC4)CC3)c(C#N)c2c(=O)n1CC#Cc1ccc(Cl)cc1-c1ccnc2c(C(=O)O)csc12", "note": "[compound 1354]", "IC50": 21.6}, {"smiles": "Cc1nc2cnc(N3CCN(C4CC(F)(F)C4)CC3)c(C#N)c2c(=O)n1CC#Cc1ccc(Cl)cc1-c1ccnc2c(C(=O)O)csc12", "note": "[compound 1355]", "IC50": 24.8}, {"smiles": "Cc1nc2cnc(N3CCN(CC(F)F)CC3)c(C#N)c2c(=O)n1CC#Cc1ccc(Cl)cc1-c1ccnc2c(C(=O)O)csc12", "note": "[compound 1356]", "IC50": 23.2}, {"smiles": "Cc1nc2cnc(N3CCN(CC(F)C(F)(F)F)CC3)c(C#N)c2c(=O)n1CCOc1ccc(Cl)cc1-c1ccnc2c(C(=O)O)csc12", "note": "(stereo not drawn) [compound 1358]", "IC50": 18.3}, {"smiles": "Cc1nc2cnc(N3CCN(CC(C(F)(F)F)C(F)(F)F)CC3)c(C#N)c2c(=O)n1CCOc1ccc(Cl)cc1-c1ccnc2c(C(=O)O)csc12", "note": "[compound 1359]", "IC50": 39.7}, {"smiles": "Cc1nc2cnc(N(C)C3CCN(CCC(F)(F)F)CC3)c(C#N)c2c(=O)n1CCOc1ccc(Cl)cc1-c1ccnc2c(C(=O)O)csc12", "note": "[compound 1360]", "IC50": 16.8}, {"smiles": "Cc1nc2cnc(N3CCN(C4(CC(F)(F)F)CC4)CC3)c(C#N)c2c(=O)n1CCOc1ccc(Cl)cc1-c1ccnc2c(C(=O)O)csc12", "note": "[compound 1361]", "IC50": 21.3}, {"smiles": "Cc1nc2cnc(N3CCN(CC(F)(F)F)CC3)c(C#N)c2c(=O)n1CC#Cc1ccc(Cl)cc1-c1ccnc2c(C(=O)NS(C)(=O)=O)csc12", "note": "[compound 1362]", "IC50": 14.1}, {"smiles": "Cc1nc2cnc(N3CC4(CC4)N(C)C4(CC4)C3)c(C#N)c2c(=O)n1CCOc1ccc(Cl)cc1-c1ccnc2c(C(=O)O)csc12", "note": "[compound 1363]", "IC50": 42.9}, {"smiles": "Cc1nc2cnc(N3CCN(C4(C)CC4)CC3)c(C#N)c2c(=O)n1CCOc1ccc(Cl)cc1-c1ccnc2c(C(=O)O)csc12", "note": "[compound 1365]", "IC50": 34.1}, {"smiles": "Cc1nc2cnc(N3CCN(C4(C(F)F)CC4)CC3)c(C#N)c2c(=O)n1CC#Cc1ccc(Cl)cc1-c1ccnc2c(C(=O)O)csc12", "note": "[compound 1366]", "IC50": 14.3}, {"smiles": "Cc1nc2cnc(N3CCN(C(C)(C)CC#N)CC3)c(C#N)c2c(=O)n1CC#Cc1ccc(Cl)cc1-c1ccnc2c(C(=O)O)csc12", "note": "[compound 1367]", "IC50": 14.9}, {"smiles": "Cc1nc2cnc(N3CCN(C4(C#N)CC4)CC3)c(C#N)c2c(=O)n1CC#Cc1ccc(Cl)cc1-c1ccnc2c(C(=O)O)csc12", "note": "[compound 1368]", "IC50": 19.9}, {"smiles": "Cc1nc2cnc(N3CC4(C3)CN(C3CCCC3)C4)c(C#N)c2c(=O)n1CCOc1ccc(Cl)cc1-c1ccnc2c(C(=O)O)csc12", "note": "[compound 1369]", "IC50": 13.2}, {"smiles": "Cc1nc2cnc(N(C)C3CCN(CC4CC4)CC3)c(C#N)c2c(=O)n1CCOc1ccc(Cl)cc1-c1ccnc2c(C(=O)O)csc12", "note": "[compound 1370]", "IC50": 19.9}, {"smiles": "Cc1nc2cc(C(F)(F)F)cc(C#N)c2c(=O)n1CCOc1ccc(Cl)cc1-c1ccnc(C(=O)NS(C)(=O)=O)c1", "note": "[compound 1372]", "IC50": 80.7}, {"smiles": "Cc1nc2c(F)ccc(C#N)c2c(=O)n1CCOc1ccc(Cl)cc1-c1ccnc2c(C(=O)O)csc12", "note": "[compound 1373]", "IC50": 26.7}, {"smiles": "Cc1nc2cc(C(F)(F)F)cc(C#N)c2c(=O)n1CCOc1ccc(Cl)cc1-c1cc(CCN)nc2c(C(=O)O)csc12", "note": "[compound 1374]", "IC50": 56.1}, {"smiles": "Cc1nc2cc(C(F)(F)F)cc(C#N)c2c(=O)n1CCOc1ccc(Cl)cc1-c1ccnc2c(-c3cc(O)no3)csc12", "note": "[compound 1375]", "IC50": 83.9}, {"smiles": "Cc1cc(-c2cc(Cl)ccc2OCCn2c(C)nc3cc(C(F)(F)F)c(CN4CCSCC4)c(C#N)c3c2=O)c2scc(C(=O)O)c2n1", "note": "[compound 1376]", "IC50": 13.6}, {"smiles": "Cc1cc(-c2cc(Cl)ccc2OCCn2c(C)nc3cc(C(F)(F)F)c(CN4CCS(=O)(=O)CC4)c(C#N)c3c2=O)c2scc(C(=O)O)c2n1", "note": "[compound 1377]", "IC50": 44}, {"smiles": "Cc1cc(-c2cc(Cl)ccc2OCCn2c(C)nc3c(-c4ccccc4)ncc(C#N)c3c2=O)c2scc(C(=O)O)c2n1", "note": "[compound 1378]", "IC50": 30}, {"smiles": "Cc1cc(-c2cc(Cl)ccc2OCCn2c(C)nc3cc(C)c(CN(C)C)c(C#N)c3c2=O)c2scc(C(=O)O)c2n1", "note": "[compound 1379]", "IC50": 18}, {"smiles": "Cc1cc(-c2cc(Cl)ccc2OCCn2c(C)nc3cc(C(F)(F)F)c(-c4ncccc4C)c(C#N)c3c2=O)c2scc(C(=O)O)c2n1", "note": "[compound 1380]", "IC50": 26.6}, {"smiles": "Cc1cc(-c2cc(Cl)ccc2OCCn2c(C)nc3cc(C(F)(F)F)c(-c4ccc(F)cn4)c(C#N)c3c2=O)c2scc(C(=O)O)c2n1", "note": "[compound 1381]", "IC50": 7.96}, {"smiles": "Cc1cc(-c2cc(Cl)ccc2OCCn2c(C)nc3cnc(-c4ccccc4)c(C#N)c3c2=O)c2scc(C(=O)O)c2n1", "note": "[compound 1382]", "IC50": 21.6}, {"smiles": "Cc1cc(-c2cc(Cl)ccc2OCCn2c(C)nc3cc(C(F)(F)F)c(-c4cnc(C)c(F)c4)c(C#N)c3c2=O)c2scc(C(=O)O)c2n1", "note": "[compound 1383]", "IC50": 5.03}, {"smiles": "Cc1cc(-c2cc(Cl)ccc2OCCn2c(C)nc3cc(C(F)(F)F)c(-c4cnc(Cl)cc4F)c(C#N)c3c2=O)c2scc(C(=O)O)c2n1", "note": "[compound 1384]", "IC50": 6.86}, {"smiles": "Cc1cc(-c2c(C(F)F)cc3nc(C)n(CCOc4ccc(Cl)cc4-c4cc(C)nc5c(C(=O)O)csc45)c(=O)c3c2C#N)cc(C)n1", "note": "[compound 1385]", "IC50": 7.24}, {"smiles": "Cc1cc(-c2c(C(F)F)cc3nc(C)n(CCOc4ccc(Cl)cc4-c4cc(C)nc5c(C(=O)O)csc45)c(=O)c3c2C#N)ccn1", "note": "[compound 1386]", "IC50": 12.8}, {"smiles": "Cc1cc(-c2cc(Cl)ccc2OCCn2c(C)nc3cc(C(F)F)c(-c4cncc(F)c4)c(C#N)c3c2=O)c2scc(C(=O)O)c2n1", "note": "[compound 1387]", "IC50": 22.8}, {"smiles": "Cc1cc(F)c(-c2c(C(F)(F)F)cc3nc(C)n(CCOc4ccc(Cl)cc4-c4cc(C)nc5c(C(=O)O)csc45)c(=O)c3c2C#N)cn1", "note": "[compound 1388]", "IC50": 36.2}, {"smiles": "Cc1cc(O)c(-c2c(C(F)(F)F)cc3nc(C)n(CCOc4ccc(Cl)cc4-c4cc(C)nc5c(C(=O)O)csc45)c(=O)c3c2C#N)cn1", "note": "[compound 1389]", "IC50": 1190}, {"smiles": "COC(=O)c1csc2c(-c3cc(Cl)ccc3OCCn3c(C)nc4cc(C(F)(F)F)c(N5CCN(C)CC5)c(C#N)c4c3=O)cc(C)nc12", "note": "[compound 1391]", "IC50": 37.6}, {"smiles": "Cc1cc(-c2cc(Cl)ccc2OCCn2c(C)nc3cc(C(F)(F)F)c(OCCN4CCNCC4)c(C#N)c3c2=O)c2sc(C)c(C(=O)O)c2n1", "note": "[compound 1392]", "IC50": 26.5}]}]}
